Values quoted from earlier work in patent publication US20250025568A1, “COMBINATION OF ANTIBODY-DRUG CONJUGATE AND PARP1 SELECTIVE INHIBITOR” (AstraZeneca UK Limited, priority 2021, published 2025).

Key:
[1] = tested on: BRCA2 −/− DLD-1; conditions: 4 day compound dosing; read-out: BRCA2 −/− DLD-1 prolif 4 d IC50; cited from earlier work
[2] = tested on: WT DLD-1; conditions: 4 day compound dosing; read-out: WT DLD-1 prolif 4 d IC50; cited from earlier work

SMILES | IC50 [1] [nM] | IC50 [2] [nM]
CCc1cc2cnc(CN3CCN(c4ccc(C(=O)NC)nc4)CC3)cc2[nH]c1=O [Example 1, 5-[4-[(3-ethyl-2-oxo-1H-1,6-naphthyridin-7-yl)methyl]piperazin-1-yl]-N-methyl-pyridine-2-carboxamide] | 10 | > 30000
CCc1cc2cnc(CN3CCN(c4ccc(C(=O)NC)nc4F)CC3)cc2[nH]c1=O [Example 2, 5-[4-[(3-ethyl-2-oxo-1H-1,6-naphthyridin-7-yl)methyl]piperazin-1-yl]-6-fluoro-N-methyl-pyridine-2-carboxamide] | 8 | > 30000
CCc1cc2cnc(CN3CCN(c4ccc(C(=O)NC)nc4Cl)CC3)cc2[nH]c1=O [Example 3, 6-chloro-5-[4-[(3-ethyl-2-oxo-1H-1,6-naphthyridin-7-yl)methyl]piperazin-1-yl]-N-methyl-pyridine-2-carboxamide] | 4 | > 30000
CCc1cc2ncc(CN3CCN(c4ccc(C(=O)NC)nc4F)CC3)cc2[nH]c1=O [Example 5, 5-[4-[(7-ethyl-6-oxo-5H-1,5-naphthyridin-3-yl)methyl]piperazin-1-yl]-6-fluoro-N-methyl-pyridine-2-carboxamide] | 6 | > 30000
CCc1cc2ncc(CN3CCN(c4ccc(C(=O)NC)nc4Cl)CC3)cc2[nH]c1=O [Example 6, 6-chloro-5-[4-[(7-ethyl-6-oxo-5H-1,5-naphthyridin-3-yl)methyl]piperazin-1-yl]-N-methyl-pyridine-2-carboxamide] | 6 | > 30000
CCc1cc2ncc(CN3CCN(c4ccc(C(N)=O)nc4)CC3)cc2[nH]c1=O [Example 7, 5-[4-[(7-ethyl-6-oxo-5H-1,5-naphthyridin-3-yl)methyl]piperazin-1-yl]pyridine-2-carboxamide] | 4140 | 
CCc1nc(C(=O)NC)ccc1N1CCN(Cc2ccc3nc(CC)c(=O)[nH]c3c2)CC1 [Example 8, 6-ethyl-5-[4-[(2-ethyl-3-oxo-4H-quinoxalin-6-yl)methyl]piperazin-1-yl]-N-methyl-pyridine-2-carboxamide] |  | > 19000
CCc1nc2ccc(CN3CCN(c4ccc(C(=O)NC)nc4C(F)(F)F)CC3)cc2[nH]c1=O [Example 9, 5-[4-[(2-ethyl-3-oxo-4H-quinoxalin-6-yl)methyl]piperazin-1-yl]-N-methyl-6-(trifluoromethyl)pyridine-2-carboxamide] | 10 | 17000
CCc1nc2ccc(CN3CCN(c4ccc(C(=O)NC)nc4C(F)F)CC3)cc2[nH]c1=O [Example 10, 6-(difluoromethyl)-5-[4-[(2-ethyl-3-oxo-4H-quinoxalin-6-yl)methyl]piperazin-1-yl]-N-methyl-pyridine-2-carboxamide] | 6 | > 30000
CCc1nc2ccc(CN3CCN(c4ccc(C(=O)NC)nc4)CC3)cc2[nH]c1=O [Example 11, 5-[4-[(2-ethyl-3-oxo-4H-quinoxalin-6-yl)methyl]piperazin-1-yl]-N-methyl-pyridine-2-carboxamide] | 184 | > 30000
CCc1nc2ccc(CN3CCN(c4ccc(C(=O)NC)nc4F)CC3)cc2[nH]c1=O [Example 12, 5-[4-[(2-ethyl-3-oxo-4H-quinoxalin-6-yl)methyl]piperazin-1-yl]-6-fluoro-N-methyl-pyridine-2-carboxamide] | 8 | > 30000
CCc1nc2ccc(CN3CCN(c4ccc(C(=O)NC)nc4C)CC3)cc2[nH]c1=O [Example 13, 5-[4-[(2-ethyl-3-oxo-4H-quinoxalin-6-yl)methyl]piperazin-1-yl]-N, 6-dimethyl-pyridine-2-carboxamide] | 5 | > 26000
CCc1nc2ccc(CN3CCN(c4ccc(C(=O)NC)nc4Cl)CC3)cc2[nH]c1=O [Example 14, 6-chloro-5-[4-[(2-ethyl-3-oxo-4H-quinoxalin-6-yl)methyl]piperazin-1-yl]-N-methyl-pyridine-2-carboxamide] | 6 | > 30000
CNC(=O)c1ccc(N2CCN(Cc3ccc4nc(C(F)(F)F)c(=O)[nH]c4c3)CC2)cn1 [Example 15, N-methyl-5-[4-[[3-oxo-2-(trifluoromethyl)-4H-quinoxalin-6-yl]methyl]piperazin-1-yl]pyridine-2-carboxamide] | 90 | > 30000
CNC(=O)c1ccc(N2CCN(Cc3ccc4nc(C(F)(F)F)c(=O)[nH]c4c3)CC2)c(Cl)n1 [Example 16, 6-chloro-N-methyl-5-[4-[[3-oxo-2-(trifluoromethyl)-4H-quinoxalin-6-yl]methyl]piperazin-1-yl]pyridine-2-carboxamide] | 18 | > 22000
CNC(=O)c1ccc(N2CCN(Cc3ccc4nc(C(F)(F)F)c(=O)[nH]c4c3)CC2)c(F)n1 [Example 17, 6-fluoro-N-methyl-5-[4-[[3-oxo-2-(trifluoromethyl)-4H-quinoxalin-6-yl]methyl]piperazin-1-yl]pyridine-2-carboxamide] | 20 | > 30000
CCCc1nc2ccc(CN3CCN(c4ccc(C(=O)NC)nc4)CC3)cc2[nH]c1=O [Example 18, N-methyl-5-[4-[(3-oxo-2-propyl-4H-quinoxalin-6-yl)methyl]piperazin-1-yl]pyridine-2-carboxamide] | 4900 | > 30000
CCCc1nc2ccc(CN3CCN(c4ccc(C(=O)NC)nc4Cl)CC3)cc2[nH]c1=O [Example 19, 6-chloro-N-methyl-5-[4-[(3-oxo-2-propyl-4H-quinoxalin-6-yl)methyl]piperazin-1-yl]pyridine-2-carboxamide] |  | > 30000
CCCc1nc2ccc(CN3CCN(c4ccc(C(=O)NC)nc4F)CC3)cc2[nH]c1=O [Example 20, 6-fluoro-N-methyl-5-[4-[(3-oxo-2-propyl-4H-quinoxalin-6-yl)methyl]piperazin-1-yl]pyridine-2-carboxamide] | 16 | > 24000
CCc1nc2cc(F)c(CN3CCN(c4ccc(C(=O)NC)nc4F)CC3)cc2[nH]c1=O [Example 21, 5-[4-[(2-ethyl-7-fluoro-3-oxo-4H-quinoxalin-6-yl)methyl]piperazin-1-yl]-6-fluoro-N-methyl-pyridine-2-carboxamide] | 16 | > 30000
CNC(=O)c1ccc(N2CCN(Cc3ccc4nc(C(C)(F)F)c(=O)[nH]c4c3)CC2)cn1 [Example 22, 5-[4-[[2-(1,1-difluoroethyl)-3-oxo-4H-quinoxalin-6-yl]methyl]piperazin-1-yl]-N-methyl-pyridine-2-carboxamide] | 12 | > 30000
CNC(=O)c1ccc(N2CCN(Cc3ccc4nc(CC(F)F)c(=O)[nH]c4c3)CC2)c(F)n1 [Example 24, 5-[4-[[2-(2,2-difluoroethyl)-3-oxo-4H-quinoxalin-6-yl]methyl]piperazin-1-yl]-6-fluoro-N-methyl-pyridine-2-carboxamide] | 10 | 14000
CNC(=O)c1ccc(N2CCN(Cc3ccc4nc(CCF)c(=O)[nH]c4c3)CC2)cn1 [Example 25, 5-[4-[[2-(2-fluoroethyl)-3-oxo-4H-quinoxalin-6-yl]methyl]piperazin-1-yl]-N-methyl-pyridine-2-carboxamide] |  | > 25000
CNC(=O)c1ccc(N2CCN(Cc3ccc4nc(CCF)c(=O)[nH]c4c3)CC2)c(F)n1 [Example 26, 6-fluoro-5-[4-[[2-(2-fluoroethyl)-3-oxo-4H-quinoxalin-6-yl]methyl]piperazin-1-yl]-N-methyl-pyridine-2-carboxamide] | 5 | 23000
CNC(=O)c1ccc(N2CCN(Cc3ccc4nc(CC(F)(F)F)c(=O)[nH]c4c3)CC2)cn1 [Example 27, N-methyl-5-[4-[[3-oxo-2-(2,2,2-trifluoroethyl)-4H-quinoxalin-6-yl]methyl]piperazin-1-yl]pyridine-2-carboxamide] | 10300 | > 10000
CNC(=O)c1ccc(N2CCN(Cc3ccc4nc(CC(F)(F)F)c(=O)[nH]c4c3)CC2)c(F)n1 [Example 28, 6-fluoro-N-methyl-5-(4-((3-oxo-2-(2,2,2-trifluoroethyl)-3,4-dihydroquinoxalin-6-yl)methyl)piperazin-1-yl) picolinamide] | 27 | > 30000
CCc1cc2ncc(CN3CCN(c4ccc(C(=O)NC)nc4C(F)F)CC3)cc2[nH]c1=O [Example 29, 6-(difluoromethyl)-5-[4-[(7-ethyl-6-oxo-5H-1,5-naphthyridin-3-yl)methyl]piperazin-1-yl]-N-methyl-pyridine-2-carboxamide] | 7 | > 30000
